Measured values published in patent US7759337B2, “Phthalazine compounds and methods of use” (Amgen Inc., priority 2005, dated 2010).

System: production of TNF by monocytes activated with bacterial lipopolysaccharide (LPS)
Assay: Lipopolysaccharide-activated monocyte TNF production assay
Assay type: cell-based
Conditions: Homo sapiens; whole blood monocyte assay (LPS induced TNF release)
Method in brief: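 Adherent human PBMC-derived monocytes preincubated 60 min with nine two-fold compound dilutions, then stimulated with E. coli K532 LPS (30 ng/mL in the added medium) for 4 h at 37 °C. Supernatant TNF measured by sandwich ELISA; IC50 is the compound concentration halving TNF production, from second-order polynomial fits.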

| Structure (SMILES) | IC50 [µM] |
| --- | --- |
| Cc1ccc(-c2nncc3cc(-c4cc(C(N)=O)ccc4C)ccc23)c(Cl)n1 [Example 211, 3-[1-(2-chloro-6-methylpyridin-3-yl)phthalazin-6-yl]-4-methylbenzamide] | ≤ 5 |
| Cc1ccc(-c2nncc3cc(-c4cc(C(=O)NC5CC5)ccc4C)ccc23)c(Cl)n1 [Example 212, 3-[1-(2-chloro-6-methylpyridin-3-yl)phthalazin-6-yl]-N-cyclopropyl-4-methylbenzamide] | ≤ 5 |
| COc1cc(F)ccc1-c1nncc2cc(-c3cc(C(N)=O)ccc3C)ccc12 [Example 213, 3-[1-(4-fluoro-2-methoxyphenyl)phthalazin-6-yl]-4-methylbenzamide] | ≤ 5 |
| Cc1ccc(C(N)=O)cc1-c1ccc2c(-c3ccc(S(C)(=O)=O)cc3)nncc2c1 [Example 214, 4-methyl-3-{1-[4-(methylsulfonyl)phenyl]phthalazin-6-yl}benzamide] | ≤ 5 |
| Cc1ccc(C(N)=O)cc1-c1ccc2c(-c3cncnc3)nncc2c1 [Example 215, 4-methyl-3-(1-pyrimidin-5-ylphthalazin-6-yl)benzamide] | ≤ 5 |
| Cc1ccc(C(N)=O)cc1-c1ccc2c(-c3cc4ccccc4[nH]3)nncc2c1 [Example 216, 3-[1-(1H-indol-2-yl)phthalazin-6-yl]-4-methylbenzamide] | ≤ 5 |
| Cc1ccc(C(N)=O)cc1-c1ccc2c(-c3ccc(F)cc3C)nncc2c1 [Example 217, 3-[1-(4-fluoro-2-methylphenyl)phthalazin-6-yl]-4-methylbenzamide] | ≤ 5 |
| Cc1ccc(C(=O)NC2CC2)cc1-c1ccc2c(-c3ccc(S(N)(=O)=O)cc3C)nncc2c1 [Example 218, 3-{1-[4-(aminosulfonyl)-2-methylphenyl]phthalazin-6-yl}-N-cyclopropyl-4-methylbenzamide] | ≤ 5 |
| Cc1ccc(C(=O)NC2CC2)cc1-c1ccc2c(-c3ccc(C(F)(F)F)cc3Cl)nncc2c1 [Example 219, 3-{1-[2-chloro-4-(trifluoromethyl)phenyl]phthalazin-6-yl}-N-cyclopropyl-4-methylbenzamide] | ≤ 5 |
| Cc1ccc(C(N)=O)cc1-c1ccc2c(-c3ccccc3C(F)(F)F)nncc2c1 [Example 220, 4-methyl-3-{1-[2-(trifluoromethyl)phenyl]phthalazin-6-yl}benzamide] | ≤ 5 |
| Cc1ccc(-c2nncc3cc(-c4cc(C(N)=O)ccc4C)ccc23)c(Cl)c1 [Example 221, 3-[1-(2-chloro-4-methylphenyl)phthalazin-6-yl]-4-methylbenzamide] | ≤ 5 |
| Cc1ccc(C(N)=O)cc1-c1ccc2c(-c3ccc(F)cc3Cl)nncc2c1 [Example 222, 3-[1-(2-chloro-4-fluorophenyl)phthalazin-6-yl]-4-methylbenzamide] | ≤ 5 |
| Cc1ccc(C(N)=O)cc1-c1ccc2c(-c3ccc(Cl)cc3Cl)nncc2c1 [Example 223, 3-[1-(2,4-dichlorophenyl)phthalazin-6-yl]-4-methylbenzamide] | ≤ 5 |
| COc1cc(Cl)ccc1-c1nncc2cc(-c3cc(C(=O)NC4CC4)ccc3C)ccc12 [Example 224, 3-[1-(4-chloro-2-methoxyphenyl)phthalazin-6-yl]-N-cyclopropyl-4-methylbenzamide] | ≤ 5 |
| COc1ncc(-c2nncc3cc(-c4cc(C(N)=O)ccc4C)ccc23)c(OC)n1 [Example 225, 3-[1-(2,4-dimethoxypyrimidin-5-yl)phthalazin-6-yl]-4-methylbenzamide] | ≤ 5 |
| COc1ccc(-c2nncc3cc(-c4cc(C(N)=O)ccc4C)ccc23)c(OC)c1 [Example 226, 3-[1-(2,4-dimethoxyphenyl)phthalazin-6-yl]-4-methylbenzamide] | ≤ 5 |

| Structure (SMILES) | IC50 [µM] |
| --- | --- |
| Cc1ccc(C(N)=O)cc1-c1ccc2c(-c3ccc(OC(C)C)cc3C)nncc2c1 [Example 227, 3-[1-(4-isopropoxy-2-methylphenyl)phthalazin-6-yl]-4-methylbenzamide] | ≤ 5 |
| COc1ncccc1-c1nncc2cc(-c3cc(C(N)=O)ccc3C)ccc12 [Example 228, 3-[1-(2-methoxypyridin-3-yl)phthalazin-6-yl]-4-methylbenzamide] | ≤ 5 |
| COc1ccc(-c2nncc3cc(-c4cc(C(N)=O)ccc4C)ccc23)c(Cl)c1 [Example 229, 3-[1-(2-chloro-4-methoxyphenyl)phthalazin-6-yl]-4-methylbenzamide] | ≤ 5 |
| COc1ncccc1-c1nncc2cc(-c3cc(C(=O)NC4CC4)ccc3C)ccc12 [Example 230, N-cyclopropyl-3-[1-(2-methoxypyridin-3-yl)phthalazin-6-yl]-4-methylbenzamide] | ≤ 5 |
| CCOc1ccc(-c2nncc3cc(-c4cc(C(N)=O)ccc4C)ccc23)c(Cl)c1 [Example 231, 3-[1-(2-chloro-4-ethoxyphenyl)phthalazin-6-yl]-4-methylbenzamide] | ≤ 5 |
| Cc1ccc(C(N)=O)cc1-c1ccc2c(-c3ccc(Cl)cc3C)nncc2c1 [Example 232, 3-[1-(4-chloro-2-methylphenyl)phthalazin-6-yl]-4-methylbenzamide] | ≤ 5 |
| Cc1ccc(C(=O)NC2CC2)cc1-c1ccc2c(-c3cccnc3Cl)nncc2c1 [Example 233, 3-[1-(2-chloropyridin-3-yl)phthalazin-6-yl]-N-cyclopropyl-4-methylbenzamide] | ≤ 5 |
| COc1ncc(-c2nncc3cc(-c4cc(C(=O)NC5CC5)ccc4C)ccc23)c(OC)n1 [Example 234, N-cyclopropyl-3-[1-(2,4-dimethoxypyrimidin-5-yl)phthalazin-6-yl]-4-methylbenzamide] | ≤ 5 |
| Cc1ccc(-c2nncc3cc(-c4cc(C(=O)NC5CC5)ccc4C)ccc23)c(Cl)c1 [Example 235, 3-[1-(2-chloro-4-methylphenyl)phthalazin-6-yl]-N-cyclopropyl-4-methylbenzamide] | ≤ 5 |
| Cc1ccc(C(N)=O)cc1-c1ccc2c(-c3ccc(S(N)(=O)=O)cc3C)nncc2c1 [Example 236, 3-{1-[4-(aminosulfonyl)-2-methylphenyl]phthalazin-6-yl}-4-methylbenzamide] | ≤ 5 |
| COc1ccc(-c2nncc3cc(-c4cc(C(N)=O)ccc4C)ccc23)c(C(F)(F)F)c1 [Example 237, 3-{1-[4-methoxy-2-(trifluoromethyl)phenyl]phthalazin-6-yl}-4-methylbenzamide] | ≤ 5 |
| CCOc1cc(Cl)ccc1-c1nncc2cc(-c3cc(C(N)=O)ccc3C)ccc12 [Example 238, 3-[1-(4-chloro-2-ethoxyphenyl)phthalazin-6-yl]-4-methylbenzamide] | ≤ 5 |
| Cc1ccc(C(=O)NC2CC2)cc1-c1ccc2c(-c3ccc(F)cc3)nncc2c1 [Example 239, N-cyclopropyl-3-[1-(4-fluorophenyl)phthalazin-6-yl]-4-methylbenzamide] | ≤ 5 |
| Cc1ccc(C(=O)NC2CC2)cc1-c1ccc2c(-c3ccc(CC(=O)O)cc3)nncc2c1 [Example 240, [4-(6-{5-[(cyclopropylamino)carbonyl]-2-methylphenyl}phthalazin-1-yl)phenyl]acetic acid] | ≤ 5 |
| Cc1ccc(C(=O)NC2CC2)cc1-c1ccc2c(-c3cccnc3C)nncc2c1 [Example 241, N-cyclopropyl-4-methyl-3-[1-(2-methylpyridin-3-yl)phthalazin-6-yl]benzamide] | ≤ 5 |
| COc1ccc(-c2nncc3cc(-c4cc(C(=O)NC5CC5)ccc4C)ccc23)c(C)c1 [Example 242, N-cyclopropyl-3-[1-(4-methoxy-2-methylphenyl)phthalazin-6-yl]-4-methylbenzamide] | ≤ 5 |
